Data: patent US20110160196A1, “FACTOR XA INHIBITORS” (Millennium Pharmaceuticals, Inc., priority 2007, published 2011)

biological target: T1, human plasma protein factor Xa (Homo sapiens, UniProt P00742); assay: Factor Xa IC50 determination (cleavage of paranitroanilide substrate S-2765); format: biochemical; details: factor Xa 1 nM, S-2765 100 μM, Tris buffered saline pH 7.4, read at 405 nm
T1 construct: The human plasma protein factor Xa was purchased; purchased Haematologic Technologies (Essex Junction, Vt.); host or cells: human plasma
T1 sequence (P00742 235-488 limits assumed): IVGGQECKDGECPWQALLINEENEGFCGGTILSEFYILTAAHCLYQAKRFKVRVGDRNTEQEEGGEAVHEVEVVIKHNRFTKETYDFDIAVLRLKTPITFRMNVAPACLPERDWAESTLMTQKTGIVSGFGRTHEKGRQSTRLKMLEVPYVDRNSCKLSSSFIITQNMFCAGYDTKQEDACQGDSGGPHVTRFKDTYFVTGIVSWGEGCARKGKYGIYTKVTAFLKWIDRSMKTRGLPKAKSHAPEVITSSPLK
T1 sequence (P00742 41-179 partner limits assumed): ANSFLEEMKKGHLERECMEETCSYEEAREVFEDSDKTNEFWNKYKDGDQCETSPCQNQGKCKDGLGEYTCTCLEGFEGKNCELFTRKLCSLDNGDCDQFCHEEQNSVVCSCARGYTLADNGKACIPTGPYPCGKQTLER
Text: This example illustrates methods for evaluating the compounds of the invention, along with results obtained for such assays. The in vitro and in vivo human Factor Xa activities of the inventive compounds can be determined by various procedures known in the art, such as a test for their ability to inhibit the activity of human plasma Factor Xa. […] The IC50 value is the concentration (in nM) of the compound required to provide 50% inhibition of human Factor Xa proteolytic activity.
An in vitro assay for detecting and measuring inhibition activity against Factor Xa is as follows:
The substrate S-2765 (Z-D-Arg-Gly-Arg-pNA.HCl) was obtained from Diapharma (West Chester, Ohio).
The human plasma protein factor Xa was purchased from Haematologic Technologies (Essex Junction, Vt.).
All assays, which are performed in 96-well microtiter plates, measure proteolytic activity of the enzyme (factor Xa) by following cleavage of a paranitroanilide peptide substrate. The assay buffer used for proteolytic assays was Tris buffered saline (20 mM Tris, 150 mM NaCl, 5 mM CaCl2, 0.1% Bovine serum albumin (BSA), 5% Dimethly Sulfoxide (DMSO) pH 7.4). In a 96-well microtiter plate, inhibitor was serially diluted to give a range of final concentrations from 0.01 nM to 10 μM. Duplicate sets of wells were assayed and control wells without inhibitor were included. Enzyme was added to each well, (factor Xa concentration=1 nM), the plate was shaken for 5 seconds and then incubated for 5 minutes at room temperature. S-2765 was added (100 μM final) and the plate was shaken for 5 seconds (final volume in each well was 200 μl). The degree of substrate hydrolysis was measured at 405 nm on a Thermomax plate reader (Molecular Devices, Sunnyvale, Calif.) for 2 minutes. The initial velocities of substrate cleavage (mOD/min), for each range of inhibitor concentrations, were fitted to a four parameter equation using Softmax data analysis software. The parameter C, derived from the resulting curve-fit, corresponded to the concentration for half maximal inhibition (IC50).

| SMILES | IC50 [nM] |
| --- | --- |
| O=C(NCc1cn(-c2ccc(-n3ccccc3=O)cc2OCCN2CCCC2)nn1)c1ccc(Cl)s1 [Compound 88, 5-Chloro-N-((1-(4-(2-oxopyridin-1(2H)-yl)-2-(2-(pyrrolidin-1-yl)ethoxy)phenyl)-1H-1,2,3-triazol-4-yl)methyl)thiophene-2-carboxamide] | ≤ 100 |
| O=C(NCc1cn(-c2ccc(-n3ccccc3=O)cc2OCCN2CCCCC2)nn1)c1ccc(Cl)s1 [Compound 89, 5-Chloro-N-((1-(4-(2-oxopyridin-1(2H)-yl)-2-(2-(piperidin-1-yl)ethoxy)phenyl)-1H-1,2,3-triazol-4-yl)methyl)thiophene-2-carboxamide] | ≤ 100 |
| O=C(NCc1cn(-c2ccc(-n3ccccc3=O)cc2OCCN2CCOCC2)nn1)c1ccc(Cl)s1 [Compound 90, 5-Chloro-N-((1-(2-(2-morpholinoethoxy)-4-(2-oxopyridin-1(2H)-yl)phenyl)-1H-1,2,3-triazol-4-yl)methyl)thiophene-2-carboxamide] | ≤ 100 |
| O=C(NCc1cn(-c2ccc(-n3ccccc3=O)cc2OCCc2ccncc2)nn1)c1ccc(Cl)s1 [Compound 91, 5-Chloro-N-((1-(4-(2-oxopyridin-1(2H)-yl)-2-(2-(pyridin-4-yl)ethoxy)phenyl)-1H-1,2,3-triazol-4-yl)methyl)thiophene-2-carboxamide] | ≤ 100 |
| CN(C)CCCOc1cc(-n2ccccc2=O)ccc1-n1cc(CNC(=O)c2ccc(Cl)s2)nn1 [Compound 92, 5-Chloro-N-((1-(2-(3-(dimethylamino)propoxy)-4-(2-oxopyridin-1(2H)-yl)phenyl)-1H-1,2,3-triazol-4-yl)methyl)thiophene-2-carboxamide] | ≤ 100 |
| O=C(NCc1cn(-c2ccc(-n3ccccc3=O)cc2OCCCN2CCCC2)nn1)c1ccc(Cl)s1 [Compound 93, 5-Chloro-N-((1-(4-(2-oxopyridin-1(2H)-yl)-2-(3-(pyrrolidin-1-yl)propoxy)phenyl)-1H-1,2,3-triazol-4-yl)methyl)thiophene-2-carboxamide] | ≤ 100 |
| O=C(NCc1cn(-c2ccc(-n3ccccc3=O)cc2OCCCN2CCCCC2)nn1)c1ccc(Cl)s1 [Compound 94, 5-Chloro-N-((1-(4-(2-oxopyridin-1(2H)-yl)-2-(3-(piperidin-1-yl)propoxy)phenyl)-1H-1,2,3-triazol-4-yl)methyl)thiophene-2-carboxamide] | ≤ 100 |
| O=C(NCc1cn(-c2ccc(-n3ccccc3=O)cc2OCCCN2CCOCC2)nn1)c1ccc(Cl)s1 [Compound 95, 5-Chloro-N-((1-(2-(3-morpholinopropoxy)-4-(2-oxopyridin-1(2H)-yl)phenyl)-1H-1,2,3-triazol-4-yl)methyl)thiophene-2-carboxamide] | ≤ 100 |
| O=C(O)COc1cc(-n2ccccc2=O)ccc1-n1cc(CNC(=O)c2ccc(Cl)s2)nn1 [Compound 96, 2-(2-(4-((2-Chlorothiophene-5-carboxamido)methyl)-1H-1,2,3-triazol-1-yl)-5-(2-oxopyridin-1(2H)-yl)phenoxy)acetic acid] | 100 to 500 |
| O=C(NCc1cn(-c2ccc(-n3ccccc3=O)cc2OCc2nnn[nH]2)nn1)c1ccc(Cl)s1 [Compound 98, N-((1-(2-((1H-Tetrazol-5-yl)methoxy)-4-(2-oxopyridin-1(2H)-yl)phenyl)-1H-1,2,3-triazol-4-yl)methyl)-5-chlorothiophene-2-carboxamide] | ≤ 100 |
| O=C(NCc1cn(-c2ccc(-n3ccccc3=O)cc2OC(F)(F)F)nn1)c1ccc(Cl)s1 [Compound 99, 5-Chloro-N-((1-(4-(2-oxopyridin-1(2H)-yl)-2-(trifluoromethoxy)phenyl)-1H-1,2,3-triazol-4-yl)methyl)thiophene-2-carboxamide] | ≤ 100 |
| O=C(NCc1cn(-c2ccc(-n3ccccc3=O)cc2C(=O)O)nn1)c1ccc(Cl)s1 [Compound 100, 2-(4-((2-Chlorothiophcne-5-carboxamido)methyl)-1H-1,2,3-triazol-1-yl)-5-(2-oxopyridin-1(2H)-yl)benzoic acid] | 100 to 500 |
| NC(=O)c1cc(-n2ccccc2=O)ccc1-n1cc(CNC(=O)c2ccc(Cl)s2)nn1 [Compound 101, N-((1-(2-Carbamoyl-4-(2-oxopyridin-1(2H)-yl)phenyl)-1H-1,2,3-triazol-4-yl)methyl)-5-chlorothiophene-2-carboxamide] | ≤ 100 |
| CNC(=O)c1cc(-n2ccccc2=O)ccc1-n1cc(CNC(=O)c2ccc(Cl)s2)nn1 [Compound 102, 5-Chloro-N-((1-(2-(methylcarbamoyl)-4-(2-oxopyridin-1(2H)-yl)phenyl)-1H-1,2,3-triazol-4-yl)methyl)thiophenc-2-carboxamide] | ≤ 100 |
| CN(C)C(=O)c1cc(-n2ccccc2=O)ccc1-n1cc(CNC(=O)c2ccc(Cl)s2)nn1 [Compound 103, 5-Chloro-N-((1-(2-(dimethylcarbamoyl)-4-(2-oxopyridin-1(2H)-yl)phenyl)-1H-1,2,3-triazol-4-yl)methyl)thiophene-2-carboxamide] | ≤ 100 |
| O=C(NCc1cn(-c2ccc(-n3ccccc3=O)cc2C(=O)NCCO)nn1)c1ccc(Cl)s1 [Compound 104, N-((1-(2-((2-Hydroxyethyl)carbamoyl)-4-(2-oxopyridin-1(2H)-yl)phenyl)-1H-1,2,3-triazol-4-yl)methyl)-5-chlorothiophene-2-carboxamide] | 100 to 500 |
| O=C(NCc1cn(-c2ccc(-n3ccccc3=O)cc2C(=O)NCCCO)nn1)c1ccc(Cl)s1 [Compound 105, N-((1-(2-((3-Hydroxypropyl)carbamoyl)-4-(2-oxopyridin-1(2H)-yl)phenyl)-1H-1,2,3-triazol-4-yl)methyl)-5-chlorothiophene-2-carboxamide] | 100 to 500 |
| COCCNC(=O)c1cc(-n2ccccc2=O)ccc1-n1cc(CNC(=O)c2ccc(Cl)s2)nn1 [Compound 106, N-((1-(2-((2-Methoxyethyl)carbamoyl)-4-(2-oxopyridin-1(2H)-yl)phenyl)-1H-1,2,3-triazol-4-yl)methyl)-5-chlorothiophene-2-carboxamide] | 100 to 500 |
| NCCNC(=O)c1cc(-n2ccccc2=O)ccc1-n1cc(CNC(=O)c2ccc(Cl)s2)nn1 [Compound 107, N-((1-(2-((2-Aminoethyl)carbamoyl)-4-(2-oxopyridin-1(2H)-yl)phenyl)-1H-1,2,3-triazol-4-yl)methyl)-5-chlorothiophene-2-carboxamide] | 100 to 500 |
| NC(=O)CNC(=O)c1cc(-n2ccccc2=O)ccc1-n1cc(CNC(=O)c2ccc(Cl)s2)nn1 [Compound 108, N-((1-(2-((2-Amino-2-oxoethyl)carbamoyl)-4-(2-oxopyridin-1(2H)-yl)phenyl)-1H-1,2,3-triazol-4-yl)methyl)-5-chlorothiophene-2-carboxamide] | 100 to 500 |
| CN(C)CCNC(=O)c1cc(-n2ccccc2=O)ccc1-n1cc(CNC(=O)c2ccc(Cl)s2)nn1 [Compound 109, N-((1-(2-((2-(Dimethylamino)ethyl)carbamoyl)-4-(2-oxopyridin-1(2H)-yl)phenyl)-1H-1,2,3-triazol-4-yl)methyl)-5-chlorothiophene-2-carboxamide] | ≤ 100 |
| CNCCN(C)C(=O)c1cc(-n2ccccc2=O)ccc1-n1cc(CNC(=O)c2ccc(Cl)s2)nn1 [Compound 110, 5-Chloro-N-((1-(2-(methyl(2-(methylamino)ethyl)carbamoyl)-4-(2-oxopyridin-1(2H)-yl)phenyl)-1H-1,2,3-triazol-4-yl)methyl)thiophene-2-carboxamide] | 100 to 500 |
| CN(C)CCN(C)C(=O)c1cc(-n2ccccc2=O)ccc1-n1cc(CNC(=O)c2ccc(Cl)s2)nn1 [Compound 111, 5-Chloro-N-((1-(2-((2-(dimethylamino)ethyl)(methyl)carbamoyl)-4-(2-oxopyridin-1(2H)-yl)phenyl)-1H-1,2,3-triazol-4-yl)methyl)thiophene-2-carboxamide] | 100 to 500 |
| NCCCNC(=O)c1cc(-n2ccccc2=O)ccc1-n1cc(CNC(=O)c2ccc(Cl)s2)nn1 [Compound 112, N-((1-(2-(3-aminopropylcarbamoyl)-4-(2-oxopyridin-1(2H)-yl)phenyl)-1H-1,2,3-triazol-4-yl)methyl)-5-chlorothiophene-2-carboxamide] | 100 to 500 |
| O=C(NCc1cn(-c2ccc(-n3ccccc3=O)cc2C(=O)N2CCNCC2)nn1)c1ccc(Cl)s1 [Compound 113, 5-Chloro-N-((1-(4-(2-oxopyridin-1(2H)-yl)-2-(piperazine-1-carbonyl)phenyl)-1H-1,2,3-triazol-4-yl)methyl)thiophene-2-carboxamide] | 100 to 500 |
| O=C1CN(C(=O)c2cc(-n3ccccc3=O)ccc2-n2cc(CNC(=O)c3ccc(Cl)s3)nn2)CCN1 [Compound 114, 5-Chloro-N-((1-(2-(2-oxopiperazine-4-carbonyl)-4-(2-oxopyridin-1(2H)-yl)phenyl)-1H-1,2,3-triazol-4-yl)methyl)thiophene-2-carboxamide] | ≤ 100 |
